Measured values from PubChem BioAssay AID192 (DTP/NCI, 2004).
“And” between values parts separate entries of the source, which are not always exact repeats. Identical values can stand only once. Toxic doses and inconclusive results are not listed.

System: BDF1 mice, B16 melanoma ip, median survival T/C
Test: NCI In Vivo Anticancer Drug Screen. Data for tumor model B16 Melanoma (intraperitoneal) in B6D2F1 (BDF1) mice
Conditions: endpoint: median survival time, higher = longer survival
Experimental: The antitumor activity of compounds was measured in mice bearing transplantable tumors. Survival or tumor size were measured and the results are expressed as the measurement made in the treated group (T) divided by the measurement made in the vehicle treated control group (C). The tumor model used in this assay is B16 Melanoma (intraperitoneal) in B6D2F1 (BDF1) mice

[1] = dose: 0.25 mg/kg/injection, schedule: Q01DX009 (ip), vehicle: saline
[2] = dose: 0.5 mg/kg/injection, schedule: Q01DX009 (ip), vehicle: saline
[3] = dose: 100.0 mg/kg/injection, schedule: Q01DX009 (ip), vehicle: Klucel (hydroxypropylcellulose) (HPC)
[4] = dose: 200.0 mg/kg/injection, schedule: Q01DX009 (ip), vehicle: Klucel (hydroxypropylcellulose) (HPC)
[5] = dose: 12.5 mg/kg/injection, schedule: Q01DX009 (ip), vehicle: saline
[6] = dose: 25.0 mg/kg/injection, schedule: Q01DX009 (ip), vehicle: Klucel (hydroxypropylcellulose) (HPC)
[7] = dose: 50.0 mg/kg/injection, schedule: Q01DX009 (ip), vehicle: Klucel (hydroxypropylcellulose) (HPC)
[8] = dose: 50.0 mg/kg/injection, schedule: Q01DX009 (ip), vehicle: saline
[9] = dose: 25.0 mg/kg/injection, schedule: Q01DX009 (ip), vehicle: saline
[10] = dose: 100.0 mg/kg/injection, schedule: Q01DX009 (ip), vehicle: saline
[11] = dose: 200.0 mg/kg/injection, schedule: Q01DX009 (ip), vehicle: saline
[12] = dose: 25.0 mg/kg/injection, schedule: Q04DX003 (ip), vehicle: saline
[13] = dose: 50.0 mg/kg/injection, schedule: Q04DX003 (ip), vehicle: saline
[14] = dose: 75.0 mg/kg/injection, schedule: Q01DX009 (ip), vehicle: Klucel (hydroxypropylcellulose) (HPC)
[15] = dose: 150.0 mg/kg/injection, schedule: Q01DX009 (ip), vehicle: Klucel (hydroxypropylcellulose) (HPC)
[16] = dose: 300.0 mg/kg/injection, schedule: Q01DX009 (ip), vehicle: Klucel (hydroxypropylcellulose) (HPC)

CCOC(=O)NC1=C(N2CC2)C(=O)C(NC(=O)OCC)=C(N2CC2)C1=O
T/C (dose: 0.13 mg/kg/injection, schedule: Q03HX016 (ip), vehicle: water): 96 % of control | T/C [1]: 100 % of control | T/C (dose: 0.25 mg/kg/injection, schedule: Q03HX016 (ip), vehicle: water): 93 % of control | T/C [2]: 110 % of control | T/C (dose: 0.75 mg/kg/injection, schedule: Q01DX009 (ip), vehicle: saline): 120 % of control | T/C (dose: 1.0 mg/kg/injection, schedule: Q01DX001 (oral), vehicle: water): 96 % of control | T/C (dose: 1.0 mg/kg/injection, schedule: Q03HX024 (ip), vehicle: water): 91 % of control | T/C (dose: 3.0 mg/kg/injection, schedule: Q01DX009 (ip), vehicle: saline with Tween-80): 162 % of control | T/C (dose: 3.0 mg/kg/injection, schedule: Q01DX009 (ip), vehicle: saline): 160 % of control | T/C (dose: 5.0 mg/kg/injection, schedule: Q01DX005 (ip), vehicle: saline with Tween-80): 194 % of control | T/C (dose: 16.0 mg/kg/injection, schedule: Q01DX009 (oral), vehicle: water): 86 % of control

CCCCCCC(=O)CC(C)C
T/C [3]: 93 % of control | T/C [4]: 90 % of control | T/C (dose: 400.0 mg/kg/injection, schedule: Q01DX009 (ip), vehicle: Klucel (hydroxypropylcellulose) (HPC)): 86 % of control

Cc1cc(C)c(NC(=O)Nc2cccc(Cl)c2)c(C)c1
T/C [3]: 88 % of control | T/C [4]: 94 % of control

Cc1cccc(C)c1NC(=O)c1ccccc1
T/C [5]: 93 % of control | T/C [6]: 89 % of control | T/C [7]: 100 % of control | T/C [8]: 90 % of control

C/C=C/c1cc2n(c1)C(=O)c1cc(OC3OC(C)C(NC)C(C)(O)C3O)c(C)c(O)c1NC2O (stereo unspecified)
T/C (dose: 0.02 mg/kg/injection, schedule: Q04DX003 (ip), vehicle: DMSO): 168 % of control | T/C (dose: 0.5 micrograms/kg/injection, schedule: Q04DX003 (ip), vehicle: saline): 184 % of control | T/C (dose: 1.0 micrograms/kg/injection, schedule: Q04DX003 (ip), vehicle: saline): 184 % of control | T/C (dose: 2.0 micrograms/kg/injection, schedule: Q04DX003 (ip), vehicle: saline): 197 % of control | T/C (dose: 16.0 micrograms/kg/injection, schedule: Q04DX003 (ip), vehicle: saline): 151 % of control

[N-]=[N+]=C1Cc2ccccc2C1=O
T/C [3]: 97 % of control | T/C [4]: 105 % of control

CN(C)CCC(c1ccccc1)c1cc(Cl)ccn1 (stereo unspecified)
T/C (dose: 6.25 mg/kg/injection, schedule: Q01DX009 (ip), vehicle: saline): 100 % of control | T/C [5]: 103 % of control | T/C [9]: 97 % of control | T/C [8]: 97 % of control | T/C [10]: 99 % of control

CC1(C)SC(C(NC(=O)COc2ccccc2)C(=O)O)NC1C(=O)O (stereo unspecified)
T/C [7]: 107 % of control | T/C [3]: 110 % of control | T/C [4]: 105 % of control

CN(C(=O)c1cccnc1)c1ccccc1
T/C (dose: 100.0 mg/kg/injection, schedule: Q01DX009 (ip), vehicle: saline with Tween-80): 109 % of control | T/C (dose: 200.0 mg/kg/injection, schedule: Q01DX009 (ip), vehicle: saline with Tween-80): 118 % of control | T/C (dose: 400.0 mg/kg/injection, schedule: Q01DX009 (ip), vehicle: saline with Tween-80): 111 % of control

OCC1OC(n2cnc3c2NC=NC[C@H]3O)CC1O (stereo partly specified)
T/C (dose: 0.06 mg/kg/injection, schedule: Q01DX009 (ip), vehicle: saline): 109 % of control | T/C (dose: 0.12 mg/kg/injection, schedule: Q01DX009 (ip), vehicle: saline): 104 % of control | T/C [1]: 101 % of control and 103 % of control | T/C [2]: 102 % of control and 106 % of control | T/C (dose: 1.0 mg/kg/injection, schedule: Q01DX009 (ip), vehicle: saline): 90 % of control and 98 % of control | T/C (dose: 2.0 mg/kg/injection, schedule: Q01DX009 (ip), vehicle: saline): 86 % of control

COC(=O)c1cc([N+](=O)[O-])cc([N+](=O)[O-])c1Br
T/C (dose: 0.37 mg/kg/injection, schedule: Q01DX009 (ip), vehicle: Klucel (hydroxypropylcellulose) (HPC)): 95 % of control | T/C (dose: 0.75 mg/kg/injection, schedule: Q01DX009 (ip), vehicle: Klucel (hydroxypropylcellulose) (HPC)): 101 % of control | T/C (dose: 1.5 mg/kg/injection, schedule: Q01DX009 (ip), vehicle: Klucel (hydroxypropylcellulose) (HPC)): 88 % of control

CC(=O)Oc1cc(-c2c(C)cc(C)cc2C)c(OC(C)=O)cc1C
T/C (dose: 100.0 mg/kg/injection, schedule: Q04DX003 (ip), vehicle: Klucel (hydroxypropylcellulose) (HPC)): 93 % of control | T/C (dose: 200.0 mg/kg/injection, schedule: Q04DX003 (ip), vehicle: Klucel (hydroxypropylcellulose) (HPC)): 91 % of control | T/C (dose: 400.0 mg/kg/injection, schedule: Q04DX003 (ip), vehicle: Klucel (hydroxypropylcellulose) (HPC)): 97 % of control

CC1(C)COC(c2ccccc2)=N1
T/C [10]: 123 % of control | T/C [11]: 115 % of control

Cc1cc(=O)[nH]c2c1C(=O)c1c(C)cc(=O)n(C)c1C2=O
T/C (dose: 0.5 mg/kg/injection, schedule: Q04DX003 (ip), vehicle: Klucel (hydroxypropylcellulose) (HPC)): 92 % of control | T/C (dose: 1.25 mg/kg/injection, schedule: Q04DX003 (ip), vehicle: Klucel (hydroxypropylcellulose) (HPC)): 102 % of control | T/C (dose: 2.5 mg/kg/injection, schedule: Q04DX003 (ip), vehicle: Klucel (hydroxypropylcellulose) (HPC)): 89 % of control

NCCC(O)C(=O)NC1CC(N)C(OC2OC(CO)C(O)C(O)C2N)C(OC2OC(CO)C(O)C2O)C1O (stereo unspecified)
T/C (dose: 10.0 mg/kg/injection, schedule: Q01DX009 (ip), vehicle: saline): 122 % of control | T/C (dose: 20.0 mg/kg/injection, schedule: Q01DX009 (ip), vehicle: saline): 124 % of control

CCO/C=C1\SC(=S)N(c2ccco2)C1=O
T/C [9]: 111 % of control | T/C [12]: 116 % of control | T/C [8]: 98 % of control | T/C [13]: 105 % of control | T/C [10]: 117 % of control | T/C (dose: 100.0 mg/kg/injection, schedule: Q04DX003 (ip), vehicle: saline): 116 % of control | T/C (dose: 200.0 mg/kg/injection, schedule: Q04DX003 (ip), vehicle: saline): 102 % of control

CC(=O)[C@@]1(O)CC[C@H]2[C@@H]3C[C@H](C)C4=CC(=O)C=C[C@]4(C)[C@@]3(F)[C@@H](O)C[C@@]21C
T/C (dose: 25.0 mg/kg/injection, schedule: Q01DX009 (sc), vehicle: steriod suspending solution): 102 % of control | T/C (dose: 50.0 mg/kg/injection, schedule: Q01DX009 (sc), vehicle: steriod suspending solution): 107 % of control

Cc1ccc(NC(=O)COc2ccc(Cl)cc2)c([N+](=O)[O-])c1
T/C [14]: 95 % of control | T/C [15]: 97 % of control | T/C [16]: 90 % of control

N#CNN=Nc1cc(Cl)c(Cl)c(Cl)c1
T/C [5]: 120 % of control | T/C [9]: 111 % of control

OCCN1CCN(CCCN2c3ccccc3CCc3ccccc32)CC1
T/C (dose: 3.9 mg/kg/injection, schedule: Q01DX009 (ip), vehicle: saline): 95 % of control | T/C (dose: 7.81 mg/kg/injection, schedule: Q01DX009 (ip), vehicle: saline): 93 % of control | T/C (dose: 15.62 mg/kg/injection, schedule: Q01DX009 (ip), vehicle: saline): 100 % of control | T/C (dose: 31.25 mg/kg/injection, schedule: Q01DX009 (ip), vehicle: saline): 97 % of control | T/C (dose: 62.5 mg/kg/injection, schedule: Q01DX009 (ip), vehicle: saline): 95 % of control

CC1(C)N=C(N)N=C(N)N1c1ccc(OCCNS(=O)(=O)c2cccc(S(=O)(=O)F)c2)c(Cl)c1
T/C (dose: 12.5 mg/kg/injection, schedule: Q01DX009 (ip), vehicle: saline with Tween-80): 107 % of control | T/C (dose: 25.0 mg/kg/injection, schedule: Q01DX009 (ip), vehicle: saline with Tween-80): 113 % of control | T/C (dose: 50.0 mg/kg/injection, schedule: Q01DX009 (ip), vehicle: saline with Tween-80): 120 % of control

Cc1ccc([N+](=O)[O-])cc1NC(=O)COc1ccc(Cl)cc1Cl
T/C [14]: 90 % of control | T/C [15]: 88 % of control | T/C [16]: 86 % of control

O=P(O)(O)OCC(O)CCl (stereo unspecified)
T/C [8]: 110 % of control | T/C [10]: 103 % of control | T/C [11]: 103 % of control

CC(N)CCc1ccccc1 (stereo unspecified)
T/C (dose: 12.5 mg/kg/injection, schedule: Q04DX003 (ip), vehicle: saline): 100 % of control | T/C [12]: 108 % of control | T/C [13]: 111 % of control

O=C(Nc1ccc(F)cc1)c1cccc(C(=O)Nc2ccc(F)cc2)c1
T/C [6]: 114 % of control | T/C [7]: 101 % of control | T/C [3]: 96 % of control
